Test results: patent US10519152B2, “Compounds and their use in treating cancer” (AstraZeneca AB, priority 2017, dated 2019)

Experiments:
[1] = biological target: T1, Estrogen Receptor (ERα) in MCF-7 human ductal carcinoma breast cell line (Homo sapiens, UniProt P03372); test: MCF-7 ER degradation assay (cell based immuno-fluorescence); settings: MCF-7 cells; for DC50: 18-22 hours incubation, 50% reduction of ERα expression, single experiment or average of two or more, read-out: MCF-7 ER degradation IC50
T1 construct: endogenous in cells; host or cells: MCF-7
T1 sequence (P03372 1-595): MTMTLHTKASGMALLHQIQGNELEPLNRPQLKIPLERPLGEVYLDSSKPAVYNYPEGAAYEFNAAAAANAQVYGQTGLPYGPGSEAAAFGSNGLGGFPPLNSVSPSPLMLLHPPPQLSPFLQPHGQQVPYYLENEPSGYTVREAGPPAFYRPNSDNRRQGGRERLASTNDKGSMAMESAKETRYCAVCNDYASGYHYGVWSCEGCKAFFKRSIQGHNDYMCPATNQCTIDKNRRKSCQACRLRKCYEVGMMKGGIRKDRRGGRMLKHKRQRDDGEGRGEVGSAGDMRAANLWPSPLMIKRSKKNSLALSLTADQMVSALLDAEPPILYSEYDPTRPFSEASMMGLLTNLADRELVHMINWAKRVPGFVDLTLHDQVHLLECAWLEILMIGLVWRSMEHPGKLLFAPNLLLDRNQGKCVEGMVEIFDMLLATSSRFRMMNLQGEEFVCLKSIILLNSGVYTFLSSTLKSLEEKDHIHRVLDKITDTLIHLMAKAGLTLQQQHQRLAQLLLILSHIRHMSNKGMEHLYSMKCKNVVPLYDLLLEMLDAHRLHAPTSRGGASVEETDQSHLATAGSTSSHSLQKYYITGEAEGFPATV
How it was run: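 MCF-7 human ductal carcinoma breast cells were seeded at 3.75×10^4 cells per mL (40 μL per well) in 384 well plates with phenol red free DMEM containing 2 mM L-Glutamine and 5% (v/v) Charcoal/Dextran treated foetal calf serum. After overnight culture, compounds were acoustically dispensed, incubated 18-22 hours, then cells were formaldehyde-fixed and immunostained for ERα.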

[2] = biological target: T2, recombinant human Estrogen Receptor alpha ligand binding domain, residues 307-554 (ER alpha-LBD (GST)) (Homo sapiens, UniProt P03372); test: ERα binding assay (LanthaScreen TR-FRET competition); settings: TR-FRET competition with Fluormone ES2 tracer, 4 hours at room temperature; single experiment or average of two or more
T2 construct: made in house
T2 sequence (P03372 307-554): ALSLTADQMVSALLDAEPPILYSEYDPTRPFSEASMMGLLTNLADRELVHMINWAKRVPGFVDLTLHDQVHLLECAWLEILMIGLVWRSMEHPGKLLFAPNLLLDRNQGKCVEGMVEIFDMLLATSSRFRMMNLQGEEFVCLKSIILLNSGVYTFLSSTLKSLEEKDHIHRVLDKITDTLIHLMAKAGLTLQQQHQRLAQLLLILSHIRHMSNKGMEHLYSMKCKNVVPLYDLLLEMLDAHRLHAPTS

SMILES	DC50 [1] [nM]	IC50 [2] [nM]	ER degradation ≥ 90% at 0.3 μM ([1]; 0.3 μM, ER degradation by fulvestrant at 0.3 μM is defined as 100%)
Cc1ncsc1-c1ccc(CNC(=O)[C@@H]2C[C@@H](O)CN2C(=O)[C@@H](NC(=O)c2ccc(CCCCCOc3cc(F)c([C@@H]4c5[nH]c6ccccc6c5C[C@@H](C)N4CC(C)(C)F)c(F)c3)cc2)C(C)(C)C)cc1 [Example 27, (2S,4R)-1-((S)-2-(4-(5-(3,5-Difluoro-4-((1R,3R)-2-(2-fluoro-2-methylpropyl)-3-methyl-2,3,4,9-tetrahydro-1H-pyrido[3,4-b]indol-1-yl)phenoxy)pentyl)benzamido)-3,3-dimethylbutanoyl)-4-hydroxy-N-(4-(4-methylthiazol-5-yl)benzyl)pyrrolidine-2-carboxamide]	22	1.1	
Cc1ncsc1-c1ccc(CNC(=O)[C@@H]2C[C@@H](O)CN2C(=O)[C@@H](NC(=O)CCCCN(C)CCN(C)CCOc2cc(F)c([C@@H]3c4[nH]c5ccccc5c4C[C@@H](C)N3CC(C)(C)F)c(F)c2)C(C)(C)C)cc1 [Example 108, (2S,4R)-1-((S)-2-(5-((2-((2-(3,5-difluoro-4-((1R,3R)-2-(2-fluoro-2-methylpropyl)-3-methyl-2,3,4,9-tetrahydro-1H-pyrido[3,4-b]indol-1-yl)phenoxy)ethyl)(methyl)amino)ethyl)(methyl)amino)pentanamido)-3,3-dimethylbutanoyl)-4-hydroxy-N-(4-(4-methylthiazol-5-yl)benzyl)pyrrolidine-2-carboxamide]	1.1	0.6	
Cc1ncsc1-c1ccc(CNC(=O)[C@@H]2C[C@@H](O)CN2C(=O)[C@@H](NC(=O)COCC#CC#CCOc2cc(F)c([C@@H]3c4[nH]c5ccccc5c4C[C@@H](C)N3CC(C)(C)F)c(F)c2)C(C)(C)C)cc1 [Example 50, (2S,4R)-1-((S)-2-(2-((6-(3,5-difluoro-4-((1R,3R)-2-(2-fluoro-2-methylpropyl)-3-methyl-2,3,4,9-tetrahydro-1H-pyrido[3,4-b]indol-1-yl)phenoxy)hexa-2,4-diyn-1-yl)oxy)acetamido)-3,3-dimethylbutanoyl)-4-hydroxy-N-(4-(4-methylthiazol-5-yl)benzyl)pyrrolidine-2-carboxamide]	6.6	1.2	
Cc1ncsc1-c1ccc(CNC(=O)[C@@H]2C[C@@H](O)CN2C(=O)[C@@H](NC(=O)COCCOCCOCCOc2cc(F)c([C@@H]3c4[nH]c5ccccc5c4C[C@@H](C)N3CC(C)(C)F)c(F)c2)C(C)(C)C)cc1 [Example 38, (2S,4R)-1-((S)-2-(tert-Butyl)-14-(3,5-difluoro-4-((1R,3R)-2-(2-fluoro-2-methylpropyl)-3-methyl-2,3,4,9-tetrahydro-1H-pyrido[3,4-b]indol-1-yl)phenoxy)-4-oxo-6,9,12-trioxa-3-azatetradecanoyl)-4-hydroxy-N-(4-(4-methylthiazol-5-yl)benzyl)pyrrolidine-2-carboxamide]		0.7	••
Cc1ncsc1-c1ccc(CNC(=O)[C@@H]2C[C@@H](O)CN2C(=O)[C@@H](NC(=O)COCCCCCOc2cc(F)c([C@@H]3c4[nH]c5ccccc5c4C[C@@H](C)N3CC(F)(F)CO)c(F)c2)C(C)(C)C)cc1 [Example 70, (2S,4R)-1-((S)-2-(2-((5-(4-((1R,3R)-2-(2,2-Difluoro-3-hydroxypropyl)-3-methyl-2,3,4,9-tetrahydro-1H-pyrido[3,4-b]indol-1-yl)-3,5-difluorophenoxy)pentyl)oxy)acetamido)-3,3-dimethylbutanoyl)-4-hydroxy-N-(4-(4-methylthiazol-5-yl)benzyl)pyrrolidine-2-carboxamide]	0.9	0.8	
